Assay results: article PMC11378297, “Discovery and Profiling of New Multimodal Phenylglycinamide Derivatives as Potent Antiseizure and Antinociceptive Drug Candidates” (ACS Chemical Neuroscience, 2024)
Like-named read-outs stand apart in the source and are kept apart here.

How the values were obtained:
[1] = tested on: 6 Hz (44 mA) seizures, mice; test: 6 Hz (44 mA) seizure test; type: in vivo; conditions: Mus musculus, ip, pretreatment time 0.5 h
From the text: Both the aforementioned parameters (ED50 and TD50) enabled the calculation of protective indexes (PIs), which reflect the comparative the benefit–risk ratio of these experimental therapeutic agents.
Four mice per group were randomly assigned to each experimental group in the initial screening experiments (each mouse was used just once). Four groups, each with eight animals, received injections of different doses of the investigated substances in order to determine the ED50 or TD50 values. The PIs for the compounds investigated and reference ASMs were calculated by dividing the TD50 value, as determined in the chimney test by the respective ED50 value, as determined in the MES, scPTZ, or 6 Hz (32 mA or 44 mA) tests (PI = TD50/ED50). The PIs are a measure of the potential therapeutic window of the tested agent.
All substances were suspended in Tween 80 (1% aqueous solution) and administered i.p. as a single injection at a volume of 10 mL/kg. On each day of experimentation, fresh solutions were prepared.

[2] = tested on: capsaicin-induced pain, mice; test: capsaicin-induced pain test; type: in vivo; conditions: Mus musculus, ip, 30 min before capsaicin
[3] = tested on: formalin-induced pain, mice; test: formalin test; type: in vivo, mouse; conditions: 100 mg/kg i.p.
[4] = tested on: fast voltage-gated sodium channels in rat prefrontal cortex pyramidal neurons; test: patch-clamp of fast voltage-gated sodium currents in prefrontal cortex pyramidal neurons; type: cell-based; conditions: 10 μM, control = 1.0, n = 5
From the text: Figure 9 Compounds (R)-31 and (R)-32 inhibit fast voltage-gated sodium currents in prefrontal cortex pyramidal neurons. (A) Example sodium current recordings in control (black trace), after application of (R)-31 (blue trace) and after wash-out (red trace). Current traces were evoked by a rectangular voltage-step. (B) Influence of (R)-31 on sodium current is shown on an example neuron. Current traces were evoked once every 10 s. […] (C) Averaged, normalized maximal sodium current amplitudes in control, in the presence of (R)-31 and after wash-out. […] (D) Example sodium current recordings in control (black trace), after application of (R)-32 (blue trace) and after wash-out (red trace). Current traces were evoked by a rectangular voltage-step. (E) Influence of (R)-32 on sodium current is shown on an example neuron. Current traces were evoked once every 10 s. […] (F) Averaged, normalized maximal sodium current amplitudes in control, in the presence of (R)-32 and after wash-out.
Patch-clamp studies were carried out in prefrontal cortex pyramidal neurons. The methodology of slice preparation, preparation of dispersed cortical neurons, and sodium currents recording technique were the same as in our previous study.[99]

[5] = biological target: T1, Voltage-Gated Sodium channel hNav1.3 (Homo sapiens, UniProt Q9NY46); test: human sodium ion channel cell based automated patch clamp assay, hNav1.3
T1 construct: Eurofins Discovery (St. Charles, MO, USA)
Description: (§1) Therefore, as a part of the more detailed functional characterization using automated patch clamp method, we tested the influence of (R)-32 on sodium currents mediated by several Navx channels comprising 5 different human subunits, namely, Nav1.1, Nav1.2, Nav1.3, Nav1.6, and Nav1.7, which are involved in both seizure and/or pain modulation.[74],[80],[81] As summarized in Tables S4–S8, (R)-32 starting from 10 μM effectively and in concentration-dependent manner decreased sodium currents mediated by all aforementioned sodium channel subunits. Furthermore, (R)-32 appeared to bind exclusively to sodium channels that are in an inactivated state (see pulse 2 in Tables S4–S8), but not to the channels that are in an open state (pulse 1) (for additional details, see Supporting Information).
(§2) Human sodium ion channels cell based automated patch clamp assay
(§3) Human sodium ion channels cell based automated patch clamp assays: sodium channels exist in, a) a resting or closed state at -120 mV, b) a transient open state that inactivates to c) inactivated state at -10 mV. Sodium current inhibition within 1-2 ms of channel opening at 0 mV is open channel inhibition (pulse 1). In order to completely inactivate the sodium channels and facilitate inactivated state-dependent binding of the drug, the channels were kept at […] ( -10 mV) longer (pulsed for 500 ms) and then stepped back to -120 mV for 10 ms to recover from inactivation into resting or closed state (but the channels that had drug bound to them will not recover from inactivation and will not open) before stepping to -10 mV for 50 ms (pulse 2) to mea sure sodium channels that are available to open. The higher inhibition seen at pulse 2 is due to inactivated state -dependent inhibition. Pulse 1 and 2 are used to investigate drug binding to the open state and inactivated state of the Na channels, respectively. Each concentration of compound is applied for 5 minutes. The results obtained for (R)-32 are summerized in Tables S4–S8. […]
(§4) Compound Concentration Measurement % Inhibition
(§5) Data interpretation: Results showing inhibition greater than 50% are considered to represent significant effects of test compound and have been bolded for (R)-32 for better visualization. The studies were carried out in Eurofins Discovery (St. Charles, MO, USA).

[6] = biological target: T2, Voltage-Gated Sodium channel hNav1.6 (Homo sapiens, UniProt Q9UQD0); test: human sodium ion channel cell based automated patch clamp assay, hNav1.6
T2 construct: Eurofins Discovery (St. Charles, MO, USA)
Description: as §1, §2, §3, §4, §5

[7] = biological target: T3, Voltage-Gated Sodium channel hNav1.7 (Homo sapiens, UniProt Q15858); test: human sodium ion channel cell based automated patch clamp assay, hNav1.7
T3 construct: Eurofins Discovery (St. Charles, MO, USA)
From the text: Human sodium ion channels cell based automated patch clamp assays: sodium channels exist in, a) a resting or closed state at -120 mV, b) a transient open state that inactivates to c) inactivated state at -10 mV. Sodium current inhibition within 1-2 ms of channel opening at 0 mV is open channel inhibition (pulse 1). In order to completely inactivate the sodium channels and facilitate inactivated state-dependent binding of the drug, the channels were kept at open state ( -10 mV) longer (pulsed for 500 ms) and then stepped back to -120 mV for 10 ms to recover from inactivation into resting or closed
open) before stepping to -10 mV for 50 ms (pulse 2) to mea sure sodium channels that are available to open. […] Pulse 1 and 2 are used to investigate drug binding to the open state and inactivated state of the Na channels, respectively. Each concentration of compound is applied for 5 minutes.
Voltage-Gated Sodium channel hNav1.1

[8] = hNav1.3, Pulse 1 (open state), read-out: % Inhibition Mean
[9] = hNav1.3, Pulse 1 (open state), read-out: % Inhibition n1
[10] = hNav1.3, Pulse 1 (open state), read-out: % Inhibition n2
[11] = hNav1.3, Pulse 2 (inactivated state), read-out: % Inhibition Mean
[12] = hNav1.3, Pulse 2 (inactivated state), read-out: % Inhibition n1
[13] = hNav1.3, Pulse 2 (inactivated state), read-out: % Inhibition n2
[14] = hNav1.6, Pulse 1 (open state), read-out: % Inhibition Mean
[15] = hNav1.6, Pulse 1 (open state), read-out: % Inhibition n1
[16] = hNav1.6, Pulse 1 (open state), read-out: % Inhibition n2
[17] = hNav1.6, Pulse 2 (inactivated state), read-out: % Inhibition Mean
[18] = hNav1.6, Pulse 2 (inactivated state), read-out: % Inhibition n1
[19] = hNav1.6, Pulse 2 (inactivated state), read-out: % Inhibition n2
[20] = hNav1.7, Pulse 1 (open state), read-out: % Inhibition Mean
[21] = hNav1.7, Pulse 1 (open state), read-out: % Inhibition n1
[22] = hNav1.7, Pulse 1 (open state), read-out: % Inhibition n2
[23] = hNav1.7, Pulse 2 (inactivated state), read-out: % Inhibition Mean
[24] = hNav1.7, Pulse 2 (inactivated state), read-out: % Inhibition n1
[25] = hNav1.7, Pulse 2 (inactivated state), read-out: % Inhibition n2

T2 sequence (Q9UQD0 whole entry): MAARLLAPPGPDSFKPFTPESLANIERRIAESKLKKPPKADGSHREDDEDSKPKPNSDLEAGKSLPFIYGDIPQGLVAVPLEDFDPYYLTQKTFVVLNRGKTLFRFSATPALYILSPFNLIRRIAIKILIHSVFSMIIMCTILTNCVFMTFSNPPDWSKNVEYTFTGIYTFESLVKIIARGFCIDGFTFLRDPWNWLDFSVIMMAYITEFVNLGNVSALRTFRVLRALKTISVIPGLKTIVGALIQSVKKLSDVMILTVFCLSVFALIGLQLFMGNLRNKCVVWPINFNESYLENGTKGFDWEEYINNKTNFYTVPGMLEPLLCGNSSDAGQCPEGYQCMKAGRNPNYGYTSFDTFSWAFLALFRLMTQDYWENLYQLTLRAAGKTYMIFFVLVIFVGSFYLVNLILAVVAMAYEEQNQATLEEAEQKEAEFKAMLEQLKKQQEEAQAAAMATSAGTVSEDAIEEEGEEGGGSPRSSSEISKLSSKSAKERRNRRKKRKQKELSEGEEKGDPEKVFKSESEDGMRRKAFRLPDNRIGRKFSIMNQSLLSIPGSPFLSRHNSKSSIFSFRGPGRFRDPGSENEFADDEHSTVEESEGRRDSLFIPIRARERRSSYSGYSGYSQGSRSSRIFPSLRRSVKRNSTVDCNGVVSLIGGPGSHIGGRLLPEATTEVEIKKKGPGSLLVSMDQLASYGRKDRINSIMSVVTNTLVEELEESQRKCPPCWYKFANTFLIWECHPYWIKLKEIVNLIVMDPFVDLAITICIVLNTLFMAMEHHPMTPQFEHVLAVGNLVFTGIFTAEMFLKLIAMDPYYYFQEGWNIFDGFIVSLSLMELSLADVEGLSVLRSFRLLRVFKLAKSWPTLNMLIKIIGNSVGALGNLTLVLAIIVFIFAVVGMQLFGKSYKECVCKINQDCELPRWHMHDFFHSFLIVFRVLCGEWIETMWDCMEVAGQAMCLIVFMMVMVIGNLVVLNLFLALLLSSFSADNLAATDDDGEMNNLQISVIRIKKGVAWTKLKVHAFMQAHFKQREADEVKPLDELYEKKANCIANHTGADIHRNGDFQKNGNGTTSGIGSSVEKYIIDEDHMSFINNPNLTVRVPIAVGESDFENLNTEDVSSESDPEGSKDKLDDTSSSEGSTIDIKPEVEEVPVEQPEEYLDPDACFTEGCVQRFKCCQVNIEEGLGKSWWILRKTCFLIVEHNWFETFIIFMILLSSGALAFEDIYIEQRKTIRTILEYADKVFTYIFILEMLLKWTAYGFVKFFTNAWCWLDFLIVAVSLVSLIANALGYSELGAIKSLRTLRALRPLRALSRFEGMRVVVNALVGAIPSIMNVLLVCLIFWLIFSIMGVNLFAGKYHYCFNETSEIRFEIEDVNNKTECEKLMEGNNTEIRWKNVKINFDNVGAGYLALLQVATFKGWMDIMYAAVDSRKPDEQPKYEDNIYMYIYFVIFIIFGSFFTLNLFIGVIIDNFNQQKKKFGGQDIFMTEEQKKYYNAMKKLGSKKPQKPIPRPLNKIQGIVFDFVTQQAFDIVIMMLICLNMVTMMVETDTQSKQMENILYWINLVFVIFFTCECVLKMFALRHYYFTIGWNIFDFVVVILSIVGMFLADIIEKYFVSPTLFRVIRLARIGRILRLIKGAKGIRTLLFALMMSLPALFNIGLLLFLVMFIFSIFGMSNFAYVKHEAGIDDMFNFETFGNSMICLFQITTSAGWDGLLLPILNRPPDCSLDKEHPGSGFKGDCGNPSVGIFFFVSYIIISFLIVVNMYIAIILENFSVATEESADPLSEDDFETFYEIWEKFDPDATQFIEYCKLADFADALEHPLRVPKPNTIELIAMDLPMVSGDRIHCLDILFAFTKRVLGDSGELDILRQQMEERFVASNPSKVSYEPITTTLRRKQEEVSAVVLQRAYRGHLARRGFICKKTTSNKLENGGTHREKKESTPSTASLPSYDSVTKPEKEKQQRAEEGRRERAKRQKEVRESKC
T1 sequence (Q9NY46 whole entry): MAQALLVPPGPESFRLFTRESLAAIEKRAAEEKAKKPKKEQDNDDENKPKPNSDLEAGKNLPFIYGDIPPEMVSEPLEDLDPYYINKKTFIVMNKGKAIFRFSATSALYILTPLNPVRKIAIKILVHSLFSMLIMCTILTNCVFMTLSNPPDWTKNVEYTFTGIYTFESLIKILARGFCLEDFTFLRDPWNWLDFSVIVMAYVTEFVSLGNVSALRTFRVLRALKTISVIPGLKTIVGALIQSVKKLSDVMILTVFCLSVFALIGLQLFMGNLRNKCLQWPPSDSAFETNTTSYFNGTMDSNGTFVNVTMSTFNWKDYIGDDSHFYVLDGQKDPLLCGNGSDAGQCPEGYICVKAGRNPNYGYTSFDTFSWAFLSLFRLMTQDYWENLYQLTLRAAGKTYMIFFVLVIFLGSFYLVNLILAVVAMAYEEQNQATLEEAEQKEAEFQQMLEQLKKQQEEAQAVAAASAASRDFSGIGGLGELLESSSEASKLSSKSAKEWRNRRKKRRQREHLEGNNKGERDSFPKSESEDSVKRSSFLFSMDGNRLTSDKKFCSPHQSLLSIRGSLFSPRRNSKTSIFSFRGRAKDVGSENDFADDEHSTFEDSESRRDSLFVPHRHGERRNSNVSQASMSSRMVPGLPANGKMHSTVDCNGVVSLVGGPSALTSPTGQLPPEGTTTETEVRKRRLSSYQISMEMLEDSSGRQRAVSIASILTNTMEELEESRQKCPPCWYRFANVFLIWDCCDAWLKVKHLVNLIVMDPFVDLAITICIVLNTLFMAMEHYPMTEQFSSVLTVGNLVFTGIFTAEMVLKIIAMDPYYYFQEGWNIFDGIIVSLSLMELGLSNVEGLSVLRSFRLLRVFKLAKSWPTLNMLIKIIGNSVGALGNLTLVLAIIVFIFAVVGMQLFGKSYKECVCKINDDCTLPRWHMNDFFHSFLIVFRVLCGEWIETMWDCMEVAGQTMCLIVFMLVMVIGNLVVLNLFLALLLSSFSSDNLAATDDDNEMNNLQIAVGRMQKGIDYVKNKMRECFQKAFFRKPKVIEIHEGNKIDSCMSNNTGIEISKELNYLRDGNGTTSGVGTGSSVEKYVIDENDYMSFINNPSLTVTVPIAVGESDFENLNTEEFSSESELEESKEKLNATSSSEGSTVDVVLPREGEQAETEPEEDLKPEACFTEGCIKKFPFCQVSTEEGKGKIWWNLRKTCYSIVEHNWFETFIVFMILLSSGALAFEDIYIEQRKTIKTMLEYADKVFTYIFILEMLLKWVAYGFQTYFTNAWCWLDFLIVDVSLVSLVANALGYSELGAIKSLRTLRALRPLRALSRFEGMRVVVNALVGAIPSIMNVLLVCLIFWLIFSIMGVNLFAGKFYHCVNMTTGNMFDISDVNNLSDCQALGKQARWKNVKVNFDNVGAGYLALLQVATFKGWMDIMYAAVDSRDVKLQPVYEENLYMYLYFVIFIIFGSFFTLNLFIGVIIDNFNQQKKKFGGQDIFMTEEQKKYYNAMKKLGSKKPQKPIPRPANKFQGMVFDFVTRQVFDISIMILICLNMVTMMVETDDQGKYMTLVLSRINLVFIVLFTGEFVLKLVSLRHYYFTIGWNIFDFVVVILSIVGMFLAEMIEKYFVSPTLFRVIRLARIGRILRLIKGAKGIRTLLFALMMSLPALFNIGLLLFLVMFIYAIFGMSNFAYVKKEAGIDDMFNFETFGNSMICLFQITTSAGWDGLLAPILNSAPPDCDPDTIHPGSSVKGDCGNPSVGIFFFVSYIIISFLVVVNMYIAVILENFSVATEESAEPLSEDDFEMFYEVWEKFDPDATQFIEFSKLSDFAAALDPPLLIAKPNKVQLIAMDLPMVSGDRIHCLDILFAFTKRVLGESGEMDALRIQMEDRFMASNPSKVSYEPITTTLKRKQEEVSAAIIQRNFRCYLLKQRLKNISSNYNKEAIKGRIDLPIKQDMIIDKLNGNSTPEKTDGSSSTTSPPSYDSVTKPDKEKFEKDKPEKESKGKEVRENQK

CC(=O)N[C@@H](C(=O)N1CCN(c2cccc(C(F)(F)F)c2)CC1)c1ccccc1 [(R)-31, (R)-N-(2-Oxo-1-phenyl-2-(4-(3-(trifluoromethyl)phenyl)piperazin-1-yl)ethyl)acetamide]
ED50 [1]: 44.2 mg/kg | ED50 [2]: 53.9 mg/kg | nociceptive response, acute phase of the formalin test ([3]; 0–5 min after formalin): significantly attenuated the nociceptive response | nociceptive response, late phase of the formalin test ([3]; 15–30 min after formalin): significantly attenuated the nociceptive response | averaged, maximal-normalized amplitude of voltage-gated sodium currents after application [4]: 0.66 ± 0.04 | averaged, maximal-normalized amplitude of voltage-gated sodium currents after wash-out [4]: 0.76 ± 0.05

CCCCNc1ccc(C(=O)OCCN(C)C)cc1 [Tetracaine, reference compound]
inhibition at 3 µM [5, 8]: 0.75% | inhibition at 3 µM [5, 9]: 3.41% | inhibition at 3 µM [5, 10]: -1.92% | inhibition at 30 µM [5, 8]: 9.85% | inhibition at 30 µM [5, 9]: 10.3% | inhibition at 30 µM [5, 10]: 9.44% | inhibition at 300 µM [5, 8]: 84.8% | inhibition at 300 µM [5, 9]: 81.8% | inhibition at 300 µM [5, 10]: 87.8% | inhibition at 3 µM [5, 11]: 56.1% | inhibition at 3 µM [5, 12]: 56.1% | inhibition at 3 µM [5, 13]: 56.1% | inhibition at 30 µM [5, 11]: 100% | inhibition at 30 µM [5, 12]: 98.9% | inhibition at 30 µM [5, 13]: 101% | inhibition at 300 µM [5, 11]: 101% | inhibition at 300 µM [5, 12]: 101% | inhibition at 300 µM [5, 13]: 102% | inhibition at 3 µM [6, 14]: 4.79% | inhibition at 3 µM [6, 15]: 7.73% | inhibition at 3 µM [6, 16]: 1.85% | inhibition at 30 µM [6, 14]: 34.7% | inhibition at 30 µM [6, 15]: 34.7% | inhibition at 30 µM [6, 16]: 34.7% | inhibition at 300 µM [6, 14]: 75% | inhibition at 300 µM [6, 15]: 68.2% | inhibition at 300 µM [6, 16]: 81.8% | inhibition at 3 µM [6, 17]: 86.4% | inhibition at 3 µM [6, 18]: 80.8% | inhibition at 3 µM [6, 19]: 91.9% | inhibition at 30 µM [6, 17]: 99.2% | inhibition at 30 µM [6, 18]: 95.7% | inhibition at 30 µM [6, 19]: 103% | inhibition at 300 µM [6, 17]: 97.9% | inhibition at 300 µM [6, 18]: 91.3% | inhibition at 300 µM [6, 19]: 104% | inhibition at 3 µM [7, 20]: 8.82% | inhibition at 3 µM [7, 21]: 11.3% | inhibition at 3 µM [7, 22]: 6.36% | inhibition at 30 µM [7, 20]: 27.6% | inhibition at 30 µM [7, 21]: 27.5% | inhibition at 30 µM [7, 22]: 27.8% | inhibition at 300 µM [7, 20]: 95.1% | inhibition at 300 µM [7, 21]: 94.6% | inhibition at 300 µM [7, 22]: 95.6% | inhibition at 3 µM [7, 23]: 47.5% | inhibition at 3 µM [7, 24]: 45.9% | inhibition at 3 µM [7, 25]: 49.1% | inhibition at 30 µM [7, 23]: 98.6% | inhibition at 30 µM [7, 24]: 98% | inhibition at 30 µM [7, 25]: 99.2% | inhibition at 300 µM [7, 23]: 101% | inhibition at 300 µM [7, 24]: 101% | inhibition at 300 µM [7, 25]: 102%
